# System: 873145-292-R-J1-PDC complex spheroid viability
# Experiment: Anticancer human tumor 873145-292-R-J1-PDC patient-derived renal clear cell carcinoma cell line growth inhibition [POLQ]
# Conditions: for IC50: curve of first compound; for viability, T/C: stronger effect = lower value
# How it was run: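 Patient-derived tumour cells were co-cultured with HUVEC and mesenchymal stem cells as multicellular spheroids at 37 °C. They were treated with POLQ inhibitors (novobiocin, ART-558, RP6685) alone or combined with other agents. Top concentrations were at or near clinical Cmax (otherwise 10 microM; SN-38 at 1 microM), decreasing in half-log steps.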
# [1] = second compound 0.0316 µM, first compound 0.0316 µM
# [2] = second compound 0.0316 µM, first compound 0.1 µM
# [3] = second compound 0.0316 µM, first compound 0.316 µM
# [4] = second compound 0.0316 µM, first compound 1 µM
# [5] = second compound 0.0316 µM, first compound 3.16 µM
# [6] = second compound 0.0316 µM, first compound 10 µM
# [7] = second compound 0.1 µM, first compound 0.0316 µM
# [8] = second compound 0.1 µM, first compound 0.1 µM
# [9] = second compound 0.1 µM, first compound 0.316 µM
# [10] = second compound 0.1 µM, first compound 1 µM
# [11] = second compound 0.1 µM, first compound 3.16 µM
# [12] = second compound 0.1 µM, first compound 10 µM
# [13] = second compound 0.316 µM, first compound 0.0316 µM
# [14] = second compound 0.316 µM, first compound 0.1 µM
# [15] = second compound 0.316 µM, first compound 0.316 µM
# [16] = second compound 0.316 µM, first compound 1 µM
# [17] = second compound 0.316 µM, first compound 3.16 µM
# [18] = second compound 0.316 µM, first compound 10 µM
# [19] = second compound 1 µM, first compound 0.0316 µM
# [20] = second compound 1 µM, first compound 0.1 µM
# [21] = second compound 1 µM, first compound 0.316 µM
# [22] = second compound 1 µM, first compound 1 µM
# [23] = second compound 1 µM, first compound 3.16 µM
# [24] = second compound 1 µM, first compound 10 µM
# [25] = second compound 3.16 µM, first compound 0.0316 µM
# [26] = second compound 3.16 µM, first compound 0.1 µM
# [27] = second compound 3.16 µM, first compound 0.316 µM
# [28] = second compound 3.16 µM, first compound 1 µM
# [29] = second compound 3.16 µM, first compound 3.16 µM
# [30] = second compound 3.16 µM, first compound 10 µM
# [31] = second compound 10 µM, first compound 0.0316 µM
# [32] = second compound 10 µM, first compound 0.1 µM
# [33] = second compound 10 µM, first compound 0.316 µM
# [34] = second compound 10 µM, first compound 1 µM
# [35] = second compound 10 µM, first compound 3.16 µM
# [36] = second compound 10 µM, first compound 10 µM
# 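Note: spheroids exposed to compounds for 7 days before viability readout.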
# 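Throughout, for viability, T/C: luminescence signal used as surrogate for viable cell content; 100% = DMSO vehicle control viability.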
structure (smiles),measurement,setting,value
C#Cc1c(F)ccc2cc(O)cc(-c3ncc4c(N5CC6CCC(C5)N6)nc(OCC56CCCN5CC(F)C6)nc4c3F)c12 (stereo unspecified) + Nc1ccc(C#CCN(C(=O)Cc2ncc(C(F)(F)F)cc2C(F)(F)F)c2ccc(F)cc2)nn1,IC50,second compound 0.0316 µM,> 10 µM
same,IC50,second compound 0.1 µM,> 10 µM
same,IC50,second compound 0.316 µM,> 10 µM
same,IC50,second compound 1 µM,> 10 µM
same,IC50,second compound 3.16 µM,> 10 µM
same,IC50,second compound 10 µM,> 10 µM
same,"viability, T/C",[1],102%
same,"viability, T/C",[2],103%
same,"viability, T/C",[3],106%
same,"viability, T/C",[4],99.4%
same,"viability, T/C",[5],105%
same,"viability, T/C",[6],97.1%
same,"viability, T/C",[7],115%
same,"viability, T/C",[8],110%
same,"viability, T/C",[9],96.6%
same,"viability, T/C",[10],108%
same,"viability, T/C",[11],101%
same,"viability, T/C",[12],91.9%
same,"viability, T/C",[13],101%
same,"viability, T/C",[14],106%
same,"viability, T/C",[15],84%
same,"viability, T/C",[16],104%
same,"viability, T/C",[17],98.8%
same,"viability, T/C",[18],86.7%
same,"viability, T/C",[19],108%
same,"viability, T/C",[20],93.8%
same,"viability, T/C",[21],111%
same,"viability, T/C",[22],97.9%
same,"viability, T/C",[23],104%
same,"viability, T/C",[24],95.4%
same,"viability, T/C",[25],106%
same,"viability, T/C",[26],100%
same,"viability, T/C",[27],107%
same,"viability, T/C",[28],106%
same,"viability, T/C",[29],90.7%
same,"viability, T/C",[30],101%
same,"viability, T/C",[31],108%
same,"viability, T/C",[32],98.7%
same,"viability, T/C",[33],104%
same,"viability, T/C",[34],98.2%
same,"viability, T/C",[35],109%
same,"viability, T/C",[36],105%
COc1cccc2c1C(=O)c1c(O)c3c(c(O)c1C2=O)CC(O)(C(=O)CO)CC3OC1CC(N)C(O)C(C)O1 (stereo unspecified) + Cc1cccc(N(C)C(=O)C2C(O)CCN2c2nc(C)cc(C(F)(F)F)c2C#N)c1,IC50,second compound 0.0316 µM,1.44 µM
same,IC50,second compound 0.1 µM,1.4 µM
same,IC50,second compound 0.316 µM,1.35 µM
same,IC50,second compound 1 µM,1.35 µM
same,IC50,second compound 3.16 µM,1.14 µM
same,IC50,second compound 10 µM,0.636 µM
same,"viability, T/C",[1],87.6%
same,"viability, T/C",[2],83.7%
same,"viability, T/C",[3],66.1%
same,"viability, T/C",[4],71.8%
same,"viability, T/C",[5],2.96%
same,"viability, T/C",[6],2.02%
same,"viability, T/C",[7],92.2%
same,"viability, T/C",[8],82.5%
same,"viability, T/C",[9],66.9%
same,"viability, T/C",[10],68.6%
same,"viability, T/C",[11],4.68%
same,"viability, T/C",[12],2.44%
same,"viability, T/C",[13],96.4%
same,"viability, T/C",[14],75.1%
same,"viability, T/C",[15],72.1%
same,"viability, T/C",[16],66.1%
same,"viability, T/C",[17],4.5%
same,"viability, T/C",[18],2.19%
same,"viability, T/C",[19],95.8%
same,"viability, T/C",[20],69.7%
same,"viability, T/C",[21],71.9%
same,"viability, T/C",[22],66.4%
same,"viability, T/C",[23],3.11%
same,"viability, T/C",[24],1.52%
same,"viability, T/C",[25],91.1%
same,"viability, T/C",[26],83.5%
same,"viability, T/C",[27],71.9%
same,"viability, T/C",[28],57.1%
same,"viability, T/C",[29],2.19%
same,"viability, T/C",[30],1.66%
same,"viability, T/C",[31],84.8%
same,"viability, T/C",[32],73.3%
same,"viability, T/C",[33],80.3%
same,"viability, T/C",[34],30.8%
same,"viability, T/C",[35],0.94%
same,"viability, T/C",[36],1.6%
CC1COCCN1c1cc(-c2ccnn2C)c2ccnc(-c3ccn[nH]3)c2n1 (stereo unspecified) + Nc1ccc(C#CCN(C(=O)Cc2ncc(C(F)(F)F)cc2C(F)(F)F)c2ccc(F)cc2)nn1,IC50,second compound 0.0316 µM,> 10 µM
same,IC50,second compound 0.1 µM,> 10 µM
same,IC50,second compound 0.316 µM,> 10 µM
same,IC50,second compound 1 µM,6.51 µM
same,IC50,second compound 3.16 µM,> 10 µM
same,IC50,second compound 10 µM,> 10 µM
same,"viability, T/C",[1],87.5%
same,"viability, T/C",[2],89.8%
same,"viability, T/C",[3],79.2%
same,"viability, T/C",[4],55.6%
same,"viability, T/C",[5],56.2%
same,"viability, T/C",[6],55.3%
same,"viability, T/C",[7],102%
same,"viability, T/C",[8],80.7%
same,"viability, T/C",[9],77.7%
same,"viability, T/C",[10],53.8%
same,"viability, T/C",[11],57.6%
same,"viability, T/C",[12],54.7%
same,"viability, T/C",[13],95.5%
same,"viability, T/C",[14],99.1%
same,"viability, T/C",[15],70.2%
same,"viability, T/C",[16],60.9%
same,"viability, T/C",[17],51.7%
same,"viability, T/C",[18],53.5%
same,"viability, T/C",[19],96.2%
same,"viability, T/C",[20],86.9%
same,"viability, T/C",[21],78.8%
same,"viability, T/C",[22],58.9%
same,"viability, T/C",[23],58.5%
same,"viability, T/C",[24],45.9%
same,"viability, T/C",[25],88.7%
same,"viability, T/C",[26],94.1%
same,"viability, T/C",[27],79.1%
same,"viability, T/C",[28],59.7%
same,"viability, T/C",[29],49.3%
same,"viability, T/C",[30],66.1%
same,"viability, T/C",[31],102%
same,"viability, T/C",[32],90.1%
same,"viability, T/C",[33],80%
same,"viability, T/C",[34],64.6%
same,"viability, T/C",[35],55.9%
same,"viability, T/C",[36],60.1%

# — PubChem BioAssay AID1963834 (Molecular Pharmacology Branch, DTP, NCI, 2024)
